# Measurements from ChEMBL document CHEMBL4725382, “Uridine natural products: Challenging targets and inspiration for novel small molecule inhibitors” (Bioorg Med Chem, 2020).
# Tests used:
# [1] = tested on: Mycobacterium tuberculosis; test: Antimycobacterial activity against Mycobacterium tuberculosis H37Rv ATCC 27294 after 14 days by resazurin reduction microplate assay; format: functional; conditions: H37Rv ATCC 27294, 336 h
# [2] = tested on: Mycobacterium tuberculosis; test: Antimycobacterial activity against Mycobacterium tuberculosis H37Rv; format: functional
SMILES,MIC50 [1] [µM],MIC [2] [µM],also measured
CC(C)C[C@H](NC(=O)N[C@@H](Cc1c[nH]c2ccccc12)C(=O)O)C(=O)N[C@H](C(=O)NC[C@H]1C[C@@H](O)[C@H](n2ccc(=O)[nH]c2=O)O1)[C@H](C)N(C)C(=O)[C@@H](N)CC1CCCCC1,1,–,–
CC[C@H](C)[C@H](NC(=O)N[C@@H](Cc1c[nH]c2ccccc12)C(=O)O)C(=O)N[C@H](C(=O)NC[C@H]1C[C@@H](O)[C@H](n2ccc(=O)[nH]c2=O)O1)[C@H](C)N(C)C(=O)CN,0.93,–,–
C[C@@H]([C@H](NC(=O)[C@H](Cc1ccccc1)NC(=O)N[C@@H](Cc1c[nH]c2ccccc12)C(=O)O)C(=O)NC[C@H]1C[C@@H](O)[C@H](n2ccc(=O)[nH]c2=O)O1)N(C)C(=O)CN,0.26,–,–
CC(C)C[C@H](NC(=O)N[C@@H](Cc1c[nH]c2ccccc12)C(=O)O)C(=O)N[C@H](C(=O)NC[C@H]1C[C@@H](O)[C@H](n2ccc(=O)[nH]c2=O)O1)[C@H](C)N(C)C(=O)[C@@H](N)Cc1ccc2ccccc2c1,3,–,–
C[C@@H](O)[C@H](NC(=O)N[C@@H](Cc1c[nH]c2ccccc12)C(=O)O)C(=O)N[C@H](C(=O)NC[C@H]1C[C@@H](O)[C@H](n2ccc(=O)[nH]c2=O)O1)[C@H](C)N(C)C(=O)CN,2.8,–,–
C[C@@H]([C@H](NC(=O)[C@@H](NC(=O)N[C@@H](Cc1c[nH]c2ccccc12)C(=O)O)c1ccccc1)C(=O)NC[C@H]1C[C@@H](O)[C@H](n2ccc(=O)[nH]c2=O)O1)N(C)C(=O)CN,> 6.26,–,–
C[C@@H]([C@H](NC(=O)[C@H](CCCCN)NC(=O)N[C@@H](Cc1c[nH]c2ccccc12)C(=O)O)C(=O)NC[C@H]1C[C@@H](O)[C@H](n2ccc(=O)[nH]c2=O)O1)N(C)C(=O)CN,0.7,–,–
CC(C)[C@H](NC(=O)N[C@@H](Cc1c[nH]c2ccccc12)C(=O)O)C(=O)N[C@H](C(=O)NC[C@H]1C[C@@H](O)[C@H](n2ccc(=O)[nH]c2=O)O1)[C@H](C)N(C)C(=O)CN,0.88,–,–
CC(C)C[C@H](NC(=O)N[C@@H](Cc1c[nH]c2ccccc12)C(=O)O)C(=O)N[C@H](C(=O)NC[C@H]1C[C@@H](O)[C@H](n2ccc(=O)[nH]c2=O)O1)[C@H](C)N(C)C(=O)CN,0.63,–,–
C[C@@H]([C@H](NC(=O)[C@H](Cc1cccnc1)NC(=O)N[C@@H](Cc1c[nH]c2ccccc12)C(=O)O)C(=O)NC[C@H]1C[C@@H](O)[C@H](n2ccc(=O)[nH]c2=O)O1)N(C)C(=O)CN,0.98,–,–
C[C@@H]([C@H](NC(=O)[C@H](Cc1c[nH]c2ccccc12)NC(=O)N[C@@H](Cc1c[nH]c2ccccc12)C(=O)O)C(=O)NC[C@H]1C[C@@H](O)[C@H](n2ccc(=O)[nH]c2=O)O1)N(C)C(=O)CN,0.44,–,–
CCCCC[C@H](NC(=O)N[C@@H](Cc1c[nH]c2ccccc12)C(=O)O)C(=O)N[C@H](C(=O)NC[C@H]1C[C@@H](O)[C@H](n2ccc(=O)[nH]c2=O)O1)[C@H](C)N(C)C(=O)CN,0.51,–,–
CC(C)C[C@H](NC(=O)N[C@@H](Cc1c[nH]c2ccccc12)C(=O)O)C(=O)N[C@H](C(=O)NC[C@H]1C[C@@H](O)[C@H](n2ccc(=O)[nH]c2=O)O1)[C@H](C)N(C)C(=O)[C@@H](N)CCCN,0.95,–,–
C[C@@H]([C@H](NC(=O)[C@H](CCc1ccccc1)NC(=O)N[C@@H](Cc1c[nH]c2ccccc12)C(=O)O)C(=O)NC[C@H]1C[C@@H](O)[C@H](n2ccc(=O)[nH]c2=O)O1)N(C)C(=O)CN,1.08,–,–
CC(C)C[C@H](NC(=O)N[C@@H](Cc1c[nH]c2ccccc12)C(=O)O)C(=O)N[C@H](C(=O)NC[C@H]1C[C@@H](O)[C@H](n2ccc(=O)[nH]c2=O)O1)[C@H](C)N(C)C(=O)[C@@H](N)CCCCN,1.35,–,–
CCCCCCCCCCCCCCCCCCOC(=O)C1=CCN(C)[C@@H]([C@H](O[C@@H]2O[C@H](CN)[C@@H](O)[C@H]2O)[C@H]2O[C@@H](n3ccc(=O)[nH]c3=O)[C@H](O)[C@@H]2O)C(=O)N1C,–,8.45,–
C[C@@H]([C@H](NC(=O)[C@H](Cc1ccc(O)cc1)NC(=O)N[C@@H](Cc1c[nH]c2ccccc12)C(=O)O)C(=O)NC[C@H]1C[C@@H](O)[C@H](n2ccc(=O)[nH]c2=O)O1)N(C)C(=O)CN,0.52,–,–
CCCCCCCCCCCCNC(=O)C1=CCN(C)[C@@H]([C@H](O[C@@H]2O[C@H](CN)[C@@H](O)[C@H]2O)[C@H]2O[C@@H](n3ccc(=O)[nH]c3=O)[C@H](O)[C@@H]2O)C(=O)N1C,–,0.98,–
CCCCCCCCCCCCCCCNC(=O)C1=CCN(C)[C@@H]([C@H](O[C@@H]2O[C@H](CN)[C@@H](O)[C@H]2O)[C@H]2O[C@@H](n3ccc(=O)[nH]c3=O)[C@H](O)[C@@H]2O)C(=O)N1C,–,0.98,–
C[C@@H]([C@H](NC(=O)[C@@H](NC(=O)N[C@@H](Cc1c[nH]c2ccccc12)C(=O)O)C1CCCCC1)C(=O)NC[C@H]1C[C@@H](O)[C@H](n2ccc(=O)[nH]c2=O)O1)N(C)C(=O)CN,0.51,–,–
CO[C@@H]1[C@@H](OC)[C@H](C)O[C@@H](OC(=O)C[C@@H](C)CC(=O)O[C@@H](CCCCCCCCCCC(C)C)CC(=O)O[C@H]2CN(C)[C@@H]([C@H](O[C@@H]3O[C@H](CN)[C@@H](O)[C@H]3O)[C@H]3O[C@@H](n4ccc(=O)[nH]c4=O)[C@H](O)[C@@H]3O)C(=O)N(C)[C@@H]2C(=O)O)[C@@H]1OC,–,2.73,–

SMILES,MIC50 [1] [µM],MIC [2] [µM],also measured
CCCCCCCCCCCCCNC(=O)C1=CCN(C)[C@@H]([C@H](O[C@@H]2O[C@H](CN)[C@@H](O)[C@H]2O)[C@H]2O[C@@H](n3ccc(=O)[nH]c3=O)[C@H](O)[C@@H]2O)C(=O)N1C,–,0.98,–
CCCCOc1ccc(N)cc1,–,2.27,–
CCCCCCCOc1ccc(NC(=O)C2=CCN(C)[C@@H]([C@H](O[C@@H]3O[C@H](CN)[C@@H](O)[C@H]3O)[C@H]3O[C@@H](n4ccc(=O)[nH]c4=O)[C@H](O)[C@@H]3O)C(=O)N2C)cc1,–,0.98,–
CC(C)[C@H](NC(=O)N[C@@H](Cc1c[nH]c2ccccc12)C(=O)O)C(=O)N[C@H](C(=O)N/C=C1/C[C@@H](O)[C@H](n2ccc(=O)[nH]c2=O)O1)[C@H](C)N(C)C(=O)[C@@H](N)Cc1cccc(O)c1,–,–,MIC [1]: 9.5 µM
CC(C)C[C@H](NC(=O)N[C@@H](Cc1c[nH]c2ccccc12)C(=O)O)C(=O)N[C@H](C(=O)NC[C@H]1C[C@@H](O)[C@H](n2ccc(=O)[nH]c2=O)O1)[C@H](C)N(C)C(=O)[C@@H](N)Cc1ccccc1,4.05,–,–
CCCCCCCCCCNC(=O)C1=CCN(C)[C@@H]([C@H](O[C@@H]2O[C@H](CN)[C@@H](O)[C@H]2O)[C@H]2O[C@@H](n3ccc(=O)[nH]c3=O)[C@H](O)[C@@H]2O)C(=O)N1C,–,0.98,–
C[C@@H]([C@H](NC(=O)[C@H](Cc1ccc(C(F)(F)F)cc1)NC(=O)N[C@@H](Cc1c[nH]c2ccccc12)C(=O)O)C(=O)NC[C@H]1C[C@@H](O)[C@H](n2ccc(=O)[nH]c2=O)O1)N(C)C(=O)CN,0.2,–,–
CCCCCCCc1ccc(NC(=O)C2=CCN(C)[C@@H]([C@H](O[C@@H]3O[C@H](CN)[C@@H](O)[C@H]3O)[C@H]3O[C@@H](n4ccc(=O)[nH]c4=O)[C@H](O)[C@@H]3O)C(=O)N2C)cc1,–,1.09,–
C[C@@H]([C@H](NC(=O)[C@H](CC1CCCCC1)NC(=O)N[C@@H](Cc1c[nH]c2ccccc12)C(=O)O)C(=O)NC[C@H]1C[C@@H](O)[C@H](n2ccc(=O)[nH]c2=O)O1)N(C)C(=O)CN,0.08,–,–
CCCCCCCCCCCCCCCCCCCCCNC(=O)C1=CCN(C)[C@@H]([C@H](O[C@@H]2O[C@H](CN)[C@@H](O)[C@H]2O)[C@H]2O[C@@H](n3ccc(=O)[nH]c3=O)[C@H](O)[C@@H]2O)C(=O)N1C,–,0.98,–
CCCCCCCCCCOC(=O)C1=CCN(C)[C@@H]([C@H](O[C@@H]2O[C@H](CN)[C@@H](O)[C@H]2O)[C@H]2O[C@@H](n3ccc(=O)[nH]c3=O)[C@H](O)[C@@H]2O)C(=O)N1C,–,8.45,–
CCCCCCCCCCCCCCCCCCNC(=O)C1=CCN(C)[C@@H]([C@H](O[C@@H]2O[C@H](CN)[C@@H](O)[C@H]2O)[C@H]2O[C@@H](n3ccc(=O)[nH]c3=O)[C@H](O)[C@@H]2O)C(=O)N1C,–,0.98,–
CCCCCCCCCCCCCCCCCNC(=O)C1=CCN(C)[C@@H]([C@H](O[C@@H]2O[C@H](CN)[C@@H](O)[C@H]2O)[C@H]2O[C@@H](n3ccc(=O)[nH]c3=O)[C@H](O)[C@@H]2O)C(=O)N1C,–,0.98,–
CCCCCCCCCCCCCCCCCCCNC(=O)C1=CCN(C)[C@@H]([C@H](O[C@@H]2O[C@H](CN)[C@@H](O)[C@H]2O)[C@H]2O[C@@H](n3ccc(=O)[nH]c3=O)[C@H](O)[C@@H]2O)C(=O)N1C,–,0.98,–
CCCCCCCCCCCCc1ccc(NC(=O)C2=CCN(C)[C@@H]([C@H](O[C@@H]3O[C@H](CN)[C@@H](O)[C@H]3O)[C@H]3O[C@@H](n4ccc(=O)[nH]c4=O)[C@H](O)[C@@H]3O)C(=O)N2C)cc1,–,1.09,–
CCCCCCCC/C=C\CCCCCCCCNC(=O)C1=CCN(C)[C@@H]([C@H](O[C@@H]2O[C@H](CN)[C@@H](O)[C@H]2O)[C@H]2O[C@@H](n3ccc(=O)[nH]c3=O)[C@H](O)[C@@H]2O)C(=O)N1C,–,3.88,–
CCCCCCCCCCCCCCNC(=O)C1=CCN(C)[C@@H]([C@H](O[C@@H]2O[C@H](CN)[C@@H](O)[C@H]2O)[C@H]2O[C@@H](n3ccc(=O)[nH]c3=O)[C@H](O)[C@@H]2O)C(=O)N1C,–,0.98,–
CCCCOc1ccc(NC(=O)C2=CCN(C)[C@@H]([C@H](O[C@@H]3O[C@H](CN)[C@@H](O)[C@H]3O)[C@H]3O[C@@H](n4ccc(=O)[nH]c4=O)[C@H](O)[C@@H]3O)C(=O)N2C)cc1,–,1.04,–
CCCCc1ccc(N)cc1,–,2.27,–
CCCCCCc1ccc(NC(=O)C2=CCN(C)[C@@H]([C@H](O[C@@H]3O[C@H](CN)[C@@H](O)[C@H]3O)[C@H]3O[C@@H](n4ccc(=O)[nH]c4=O)[C@H](O)[C@@H]3O)C(=O)N2C)cc1,–,1.09,–
